Source: ChEMBL document CHEMBL3875179 (Eur J Med Chem, 2016)

Tests used:
[1] = molecular target: Cholinesterase (Equus caballus) (UniProt P81908); assay: Inhibition of equine serum BChE using butyrylthiocholine iodide as substrate at 10^-4 M preincubated for 15 mins followed by substrate addition and measured for 5 mins by Ellmans method
[2] = molecular target: Cholinesterase (Equus caballus) (UniProt P81908); assay: Inhibition of equine serum BChE using butyrylthiocholine iodide as substrate at 10^-3 M preincubated for 15 mins followed by substrate addition and measured for 5 mins by Ellmans method
[3] = molecular target: Acetylcholinesterase (Electrophorus electricus, UniProt O42275); assay: Inhibition of electric eel AChE using acetylthiocholine iodide as substrate preincubated for 15 mins followed by substrate addition and measured for 5 mins by Ellmans method
[4] = Cytotoxicity against mouse NIH/3T3 cells after 24 hrs by MTT assay; type: toxicity, NIH3T3
[5] = Selectivity index, ratio of IC50 for mouse NIH/3T3 cells to IC50 for electric eel AChE

Cholinesterase (Equus caballus), sequence (P81908 whole entry): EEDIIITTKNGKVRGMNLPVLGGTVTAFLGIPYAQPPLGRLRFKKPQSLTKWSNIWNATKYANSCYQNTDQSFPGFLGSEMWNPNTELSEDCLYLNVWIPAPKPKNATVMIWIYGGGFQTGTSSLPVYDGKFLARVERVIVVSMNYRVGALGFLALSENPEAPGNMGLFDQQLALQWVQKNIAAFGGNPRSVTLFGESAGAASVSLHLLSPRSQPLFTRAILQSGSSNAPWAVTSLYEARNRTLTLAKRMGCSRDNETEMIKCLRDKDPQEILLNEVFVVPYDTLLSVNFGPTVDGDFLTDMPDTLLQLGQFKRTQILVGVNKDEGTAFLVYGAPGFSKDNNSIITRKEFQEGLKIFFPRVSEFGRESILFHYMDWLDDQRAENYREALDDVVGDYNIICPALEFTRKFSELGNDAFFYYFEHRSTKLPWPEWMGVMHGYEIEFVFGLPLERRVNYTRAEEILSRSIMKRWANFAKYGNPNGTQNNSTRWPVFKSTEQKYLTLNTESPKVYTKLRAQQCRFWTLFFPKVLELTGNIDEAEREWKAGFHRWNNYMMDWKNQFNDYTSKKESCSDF
Acetylcholinesterase, sequence (O42275 whole entry): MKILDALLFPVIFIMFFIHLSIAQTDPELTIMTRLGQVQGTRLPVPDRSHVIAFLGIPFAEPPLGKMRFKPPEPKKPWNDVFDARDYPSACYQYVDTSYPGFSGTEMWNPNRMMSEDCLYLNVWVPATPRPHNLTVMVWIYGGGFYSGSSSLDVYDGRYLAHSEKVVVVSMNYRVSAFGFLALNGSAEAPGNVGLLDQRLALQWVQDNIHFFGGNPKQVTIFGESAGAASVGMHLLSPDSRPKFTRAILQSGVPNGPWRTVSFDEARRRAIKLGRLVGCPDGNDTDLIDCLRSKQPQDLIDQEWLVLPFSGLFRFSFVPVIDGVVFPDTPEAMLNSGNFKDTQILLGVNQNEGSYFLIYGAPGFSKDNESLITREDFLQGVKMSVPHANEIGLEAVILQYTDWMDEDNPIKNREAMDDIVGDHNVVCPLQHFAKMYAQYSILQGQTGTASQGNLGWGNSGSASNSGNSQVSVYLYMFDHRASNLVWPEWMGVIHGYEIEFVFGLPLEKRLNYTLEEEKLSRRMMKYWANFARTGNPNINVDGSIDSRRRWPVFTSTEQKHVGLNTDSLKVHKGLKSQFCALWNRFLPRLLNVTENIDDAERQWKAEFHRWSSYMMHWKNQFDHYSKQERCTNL

| SMILES | inhibition [1] | inhibition [2] | IC50 [3] | IC50 at 24 h [4] | Ratio IC50 [5] |
| --- | --- | --- | --- | --- | --- |
| COc1ccc2c(c1)C/C(=C/c1ccc(N3CCCC3)cc1)C2=O | 1.25% | 3.08% | – | – | – |
| CCN(CC)c1ccc(/C=C2/Cc3ccc(OC)cc3C2=O)cc1 | 1.65% | 2.8% | – | – | – |
| COc1cc2c(cc1OC)C(=O)/C(=C\c1ccc(N3CCCC3)cc1)C2 | 2.77% | 4.98% | – | – | – |
| COc1ccc2c(c1)C/C(=C/c1ccc(N3CCN(C)CC3)cc1)C2=O | 7.56% | 12.9% | – | – | – |
| COc1cc2c(cc1OC)C(=O)C(CC1CCN(CC(=O)Nc3ccc(C)cc3)CC1)C2 (configuration not stated) | 3.2% | 5.89% | – | – | – |
| CCN(CC)c1ccc(/C=C2/Cc3cc(OC)ccc3C2=O)cc1 | 5.27% | 10.3% | – | – | – |
| COc1cc2c(cc1OC)C(=O)C(CC1CCN(CC(=O)Nc3nc4ccccc4s3)CC1)C2 (configuration not stated) | 2.31% | 5.23% | – | – | – |
| CCN1CCN(c2ccc(/C=C3/Cc4cc(OC)c(OC)cc4C3=O)cc2)CC1 | 8.56% | 16.9% | – | – | – |
| COc1cc2c(cc1OC)C(=O)C(CC1CCN(CC(=O)Nc3nc4ccc(F)cc4s3)CC1)C2 (configuration not stated) | 3.1% | 4.89% | – | – | – |
| COc1cc2c(cc1OC)C(=O)/C(=C\c1ccc(N3CCN(CCCN(C)C)CC3)cc1)C2 | 13.9% | 18.7% | 4.89 µM | 78 µM | – |
| COc1cc2c(cc1OC)C(=O)/C(=C\c1ccc(N3CCN(c4ccccc4)CC3)cc1)C2 | 1.08% | 3.22% | – | – | – |
| COc1cc2c(cc1OC)C(=O)/C(=C\c1ccc(N3CCN(CCN(C)C)CC3)cc1)C2 | 12.1% | 17% | 6.38 µM | 320 µM | 50 |
| CCN(CC)c1ccc(/C=C2/Cc3cc(OC)c(OC)cc3C2=O)cc1 | 1.96% | 3.76% | – | – | – |
| COc1ccc2nc(NC(=O)CN3CCC(CC4Cc5cc(OC)c(OC)cc5C4=O)CC3)sc2c1 (configuration not stated) | 3.19% | 5.33% | – | – | – |
| COc1cc2c(cc1OC)C(=O)C(CC1CCN(CC(=O)Nc3nc4ccc(Cl)cc4s3)CC1)C2 (configuration not stated) | 3.09% | 6.21% | – | – | – |
| COc1cc2c(cc1OC)C(=O)/C(=C\c1ccc(N3CCN(CCO)CC3)cc1)C2 | 7.55% | 18.2% | – | – | – |
| COc1ccc2c(c1)C/C(=C/c1ccc(N3CCN(c4ccccc4)CC3)cc1)C2=O | 2.38% | 5.2% | – | – | – |
| CCN1CCN(c2ccc(/C=C3/Cc4ccc(OC)cc4C3=O)cc2)CC1 | 4.2% | 5.05% | – | – | – |
| COc1cc2c(cc1OC)C(=O)C(CC1CCN(CC(=O)Nc3nc4cc(OC)c(OC)cc4s3)CC1)C2 (configuration not stated) | 2.05% | 3.77% | – | – | – |

| SMILES | inhibition [1] | inhibition [2] | IC50 [3] | IC50 at 24 h [4] | Ratio IC50 [5] |
| --- | --- | --- | --- | --- | --- |
| COc1ccc2c(c1)C(=O)/C(=C\c1ccc(N3CCN(c4ccccc4)CC3)cc1)C2 | 1.06% | 1.73% | – | – | – |
| COc1ccc2c(c1)C/C(=C/c1ccc(N3CCN(CCCN(C)C)CC3)cc1)C2=O | 11.3% | 16% | 8.54 µM | 230 µM | 27 |
| COc1cc2c(cc1OC)C(=O)/C(=C\c1ccc(N3CCN(C)CC3)cc1)C2 | 8.55% | 19.2% | – | – | – |
| COc1ccc(NC(=O)CN2CCC(CC3Cc4cc(OC)c(OC)cc4C3=O)CC2)cc1OC (configuration not stated) | 1.29% | 5.85% | – | – | – |
| COc1ccc2c(c1)C/C(=C/c1ccc(N3CCN(CCN(C)C)CC3)cc1)C2=O | 9.56% | 15.2% | – | – | – |
| COc1cc2c(cc1OC)C(=O)C(CC1CCN(CC(=O)Nc3nc4ccc(C)cc4s3)CC1)C2 (configuration not stated) | 2.08% | 4.29% | – | – | – |
| CCN1CCN(c2ccc(/C=C3/Cc4cc(OC)ccc4C3=O)cc2)CC1 | 8.77% | 15.1% | – | – | – |
| COc1ccc(NC(=O)CN2CCC(CC3Cc4cc(OC)c(OC)cc4C3=O)CC2)cc1 (configuration not stated) | 1.33% | 4.28% | – | – | – |
| COc1ccc2c(c1)C/C(=C/c1ccc(N3CCN(CCO)CC3)cc1)C2=O | 5.91% | 7.63% | – | – | – |
| COc1ccc2c(c1)C(=O)/C(=C\c1ccc(N3CCCC3)cc1)C2 | 3.18% | 5.7% | – | – | – |
| COc1ccc2c(c1)C(=O)/C(=C\c1ccc(N3CCN(C)CC3)cc1)C2 | 9.63% | 14.7% | – | – | – |
| COc1ccc2c(c1)C(=O)/C(=C\c1ccc(N3CCN(CCO)CC3)cc1)C2 | 1.25% | 3.45% | – | – | – |
| COc1cc2c(cc1OC)C(=O)C(CC1CCN(CC(=O)Nc3ccc(Cl)cc3)CC1)C2 (configuration not stated) | 2.77% | 5.39% | – | – | – |
| COc1cc2c(cc1OC)C(=O)C(CC1CCN(CC(=O)Nc3ccccc3)CC1)C2 (configuration not stated) | 2.58% | 5% | – | – | – |
| COc1ccc2c(c1)C(=O)/C(=C\c1ccc(N3CCN(CCCN(C)C)CC3)cc1)C2 | 10.1% | 16.1% | 6.06 µM | 78 µM | 13 |
| COc1cc2c(cc1OC)C(=O)C(CC1CCN(CC(=O)Nc3nc4ccc([N+](=O)[O-])cc4s3)CC1)C2 (configuration not stated) | 1.13% | 4.18% | – | – | – |
| COc1cc2c(cc1OC)C(=O)C(CC1CCN(CC(=O)Nc3ccc(F)cc3)CC1)C2 (configuration not stated) | 1.99% | 4.75% | – | – | – |
| COc1cc2c(cc1OC)C(=O)C(CC1CCN(CC(=O)Nc3ccc([N+](=O)[O-])cc3)CC1)C2 (configuration not stated) | 2.69% | 4.88% | – | – | – |
| COc1ccc2c(c1)C(=O)/C(=C\c1ccc(N3CCN(CCN(C)C)CC3)cc1)C2 | 10.6% | 17.2% | – | – | – |
